Legend:
LRRK2 wild type enzyme = LRRK2 wild type enzyme (Homo sapiens, UniProt Q5S007); assay: Biochemical Assay: LRRK2 TR-FRET (LanthaScreen) kinase assay with LRRKtide substrate; conditions: LRRK2 Inhibition, Table 8
Summary of the method: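 TR-FRET detection (Tb-labelled phospho-LRRKtide antibody, EDTA stop, 30 min) followed a 120 min, 23 °C reaction of 3 nM wild-type human LRRK2 with LRRKtide (400 nM) and ATP (25 μM) in Tris pH 8.0. Compounds: 11-point 3-fold series from 10 μM, 15 min enzyme preincubation.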

[1] = biological target: T1, wild type LRRK2 overexpressed in recombinant HEK-293T cells (Homo sapiens, UniProt Q5S007); assay: pS935 LRRK2 Cell Assay (HTRF, phospho-LRRK2 Ser935); assay type: cell-based; conditions: LRRK2 Inhibition, Table 8, 2 hours compound incubation
T1 construct: host or cells: HEK293T (transient transfection with pCMV-LRRK2 WT plasmid)
T1 sequence (Q5S007 whole entry): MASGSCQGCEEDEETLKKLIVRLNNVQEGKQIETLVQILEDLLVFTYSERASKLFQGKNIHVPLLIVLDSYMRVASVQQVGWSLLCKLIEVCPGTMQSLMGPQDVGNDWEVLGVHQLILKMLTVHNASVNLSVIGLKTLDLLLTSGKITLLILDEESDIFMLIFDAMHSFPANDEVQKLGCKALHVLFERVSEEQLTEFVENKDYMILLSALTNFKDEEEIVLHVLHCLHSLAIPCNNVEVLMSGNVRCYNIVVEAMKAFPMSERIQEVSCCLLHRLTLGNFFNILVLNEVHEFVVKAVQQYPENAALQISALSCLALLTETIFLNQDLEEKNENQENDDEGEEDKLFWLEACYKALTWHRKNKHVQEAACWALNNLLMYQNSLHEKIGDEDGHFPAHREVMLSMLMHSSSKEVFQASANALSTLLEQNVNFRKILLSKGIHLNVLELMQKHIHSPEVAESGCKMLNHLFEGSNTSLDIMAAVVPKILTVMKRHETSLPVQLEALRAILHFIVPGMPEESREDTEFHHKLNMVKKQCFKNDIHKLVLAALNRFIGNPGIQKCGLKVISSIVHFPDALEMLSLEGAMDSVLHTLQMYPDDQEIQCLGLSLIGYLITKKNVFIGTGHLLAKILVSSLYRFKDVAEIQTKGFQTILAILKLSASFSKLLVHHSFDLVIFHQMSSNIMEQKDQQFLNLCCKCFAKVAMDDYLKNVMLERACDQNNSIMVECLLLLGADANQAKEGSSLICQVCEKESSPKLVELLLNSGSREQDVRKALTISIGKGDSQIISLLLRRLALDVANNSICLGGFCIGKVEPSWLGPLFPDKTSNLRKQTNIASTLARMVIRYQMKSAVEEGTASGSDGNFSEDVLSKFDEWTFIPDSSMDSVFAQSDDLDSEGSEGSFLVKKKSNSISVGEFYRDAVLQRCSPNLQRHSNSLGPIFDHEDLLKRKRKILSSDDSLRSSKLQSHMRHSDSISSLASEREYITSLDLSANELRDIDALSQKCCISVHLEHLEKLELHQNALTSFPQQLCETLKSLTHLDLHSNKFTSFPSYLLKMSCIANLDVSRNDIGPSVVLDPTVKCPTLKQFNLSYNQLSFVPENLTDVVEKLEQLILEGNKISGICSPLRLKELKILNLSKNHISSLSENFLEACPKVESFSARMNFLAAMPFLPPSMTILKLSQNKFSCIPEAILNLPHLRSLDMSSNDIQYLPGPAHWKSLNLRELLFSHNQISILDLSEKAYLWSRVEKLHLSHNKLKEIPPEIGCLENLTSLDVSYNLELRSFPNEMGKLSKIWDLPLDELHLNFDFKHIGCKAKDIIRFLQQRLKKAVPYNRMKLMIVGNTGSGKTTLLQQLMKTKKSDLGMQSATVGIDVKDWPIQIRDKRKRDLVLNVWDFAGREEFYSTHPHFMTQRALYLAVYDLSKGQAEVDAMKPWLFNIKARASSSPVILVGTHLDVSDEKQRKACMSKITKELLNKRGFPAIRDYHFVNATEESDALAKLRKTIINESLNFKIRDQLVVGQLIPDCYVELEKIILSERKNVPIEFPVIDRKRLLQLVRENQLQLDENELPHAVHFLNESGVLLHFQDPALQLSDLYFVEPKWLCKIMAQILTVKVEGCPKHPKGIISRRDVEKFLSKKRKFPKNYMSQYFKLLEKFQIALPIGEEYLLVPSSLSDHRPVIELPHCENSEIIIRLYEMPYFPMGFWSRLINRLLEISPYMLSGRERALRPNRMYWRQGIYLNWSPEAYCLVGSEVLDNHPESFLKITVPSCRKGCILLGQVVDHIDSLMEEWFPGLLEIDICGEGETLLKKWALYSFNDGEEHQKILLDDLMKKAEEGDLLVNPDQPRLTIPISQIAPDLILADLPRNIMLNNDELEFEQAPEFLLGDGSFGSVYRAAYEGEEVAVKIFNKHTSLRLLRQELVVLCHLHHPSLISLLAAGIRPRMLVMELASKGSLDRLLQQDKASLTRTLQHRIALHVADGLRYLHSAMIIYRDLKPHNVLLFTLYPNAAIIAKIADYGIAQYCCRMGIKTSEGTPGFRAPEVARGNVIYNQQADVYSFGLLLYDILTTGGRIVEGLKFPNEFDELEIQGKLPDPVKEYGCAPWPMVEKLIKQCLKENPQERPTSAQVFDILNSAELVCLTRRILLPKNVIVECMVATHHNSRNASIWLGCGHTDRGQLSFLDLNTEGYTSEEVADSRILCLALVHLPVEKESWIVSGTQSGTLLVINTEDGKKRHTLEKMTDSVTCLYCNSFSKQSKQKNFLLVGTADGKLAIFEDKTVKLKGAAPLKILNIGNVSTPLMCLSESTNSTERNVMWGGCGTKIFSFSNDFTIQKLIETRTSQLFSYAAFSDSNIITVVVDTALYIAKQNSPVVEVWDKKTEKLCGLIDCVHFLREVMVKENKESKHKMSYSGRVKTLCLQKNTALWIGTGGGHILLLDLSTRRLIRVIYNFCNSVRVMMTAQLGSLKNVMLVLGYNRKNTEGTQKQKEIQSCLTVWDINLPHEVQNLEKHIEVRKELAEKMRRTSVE
Summary of the method: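 Phospho-Ser935 LRRK2 measured by two-antibody HTRF (Eu-cryptate donor, d2 acceptor; 665/615 nm ratio) after overnight detection at 23° C. Before lysis, transiently LRRK2-transfected HEK-293T cells were exposed 2 h at 37° C to a 9-point, 3-fold series from 10 μM, with DMSO at 0.2%.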

Chain of LRRK2 wild type enzyme (Q5S007 whole entry): as above

Row | Compound | IC50 (LRRK2 wild type enzyme) [nM] | IC50 [1] [nM]
1 | Cc1ccnc(C)c1NC(=O)Cc1nc2cnc3ccc(Cl)cc3c2n1[C@@H]1CCO[C@H](C)C1 [Compound 210, N-(2,4-dimethyl-3-pyridyl){3-[(2R,4R)-2-methyltetrahydro-2H-pyran-4-yl]-12-chloro-3,5,8-triazatricyclo[7.4.0.0^2,6]trideca-1,4,6,8,10,12-hexaen-4-yl}acetamide] | 0.377 | 7.83
2 | C[C@@H]1C[C@H](n2c(CC(=O)Nc3nccc(C4CC4)n3)nc3cnc4ccc(C#N)cc4c32)CCO1 [Compound 338, N-(4-cyclopropyl-2-pyrimidinyl){3-[(2R,4R)-2-methyltetrahydro-2H-pyran-4-yl]-12-cyano-3,5,8-triazatricyclo[7.4.0.0^2,6]trideca-1(9),2(6),4,7,10,12-hexaen-4-yl}acetamide] | 0.364 | 1.87
3 | C[C@@H]1C[C@H](n2c(CC(=O)NC[C@H]3CCCO3)nc3cnc4ccc(C#N)cc4c32)CCO1 [Compound 153, 2-{8-cyano-1-[(2R,4R)-2-methyloxan-4-yl]-1H-imidazo[4,5-c]quinolin-2-yl}-N-{[(2R)-oxolan-2-yl]methyl} acetamide] | 0.514 | 21.3
4 | C[C@@H]1C[C@H](n2c(CC(=O)Nc3ccno3)nc3cnc4ccc(C#N)cc4c32)CCO1 [Compound 165, 2-{8-cyano-1-[(2R,4R)-2-methyloxan-4-yl]-1H-imidazo[4,5-c]quinolin-2-yl}-N-(1,2-oxazol-5-yl)acetamide] | 0.789 | 10.6
5 | Cc1oncc1NC(=O)Cc1nc2cnc3ccc(C#N)cc3c2n1[C@@H]1CCO[C@H](C)C1 [Compound 209, N-(5-methyl-4-isoxazolyl){3-[(2R,4R)-2-methyltetrahydro-2H-pyran-4-yl]-12-cyano-3,5,8-triazatricyclo[7.4.0.0^2,6]trideca-1,4,6,8,10,12-hexaen-4-yl}acetamide] | 0.427 | 13.2
6 | C[C@@H]1C[C@H](n2c(CC(=O)NCCC(F)(F)F)nc3cnc4ccc(C#N)cc4c32)CCO1 [Compound 167, 2-{8-cyano-1-[(2R,4R)-2-methyloxan-4-yl]-1H-imidazo[4,5-c]quinolin-2-yl}-N-(3,3,3-trifluoropropyl)acetamide] | 0.638 | 46.2
7 | CNC(=O)Cc1nc2cnc3ccc(C#N)cc3c2n1[C@@H]1CCO[C@H](C)C1 [Compound 82, 2-{8-cyano-1-[(2R,4R)-2-methyloxan-4-yl]-1H-imidazo[4,5-c]quinolin-2-yl}-N-methylacetamide] | 0.83 | 81.8
8 | COCCNC(=O)Cc1nc2cnc3ccc(Cl)cc3c2n1[C@@H]1CCO[C@H](C)C1 [Compound 164, 2-{8-chloro-1-[(2R,4R)-2-methyloxan-4-yl]-1H-imidazo[4,5-c]quinolin-2-yl}-N-(2-methoxyethyl)acetamide] | 0.369 | 15.2
9 | C[C@@H]1C[C@H](n2c(CC(=O)NC3CCCCC3)nc3cnc4ccc(C#N)cc4c32)CCO1 [Compound 309, N-cyclohexyl{3-[(2R,4R)-2-methyltetrahydro-2H-pyran-4-yl]-12-cyano-3,5,8-triazatricyclo[7.4.0.0^2,6]trideca-1,4,6,8,10,12-hexaen-4-yl}acetamide] | 0.635 | 14.4
10 | C[C@@H]1C[C@H](n2c(CC(=O)NC3CC3F)nc3cnc4ccc(C#N)cc4c32)CCO1 (stereo in doubt) [Compound 245, N-[(1R,2R)-2-fluorocyclopropyl]{3-[(2R,4R)-2-methyltetrahydro-2H-pyran-4-yl]-12-cyano-3,5,8-triazatricyclo[7.4.0.0^2,6]trideca-1(13),2(6),4,7,9,11-hexaen-4-yl}acetamide] | 0.947 | 71
11 | C[C@@H]1C[C@H](n2c(C3CCN(C(=O)C4CC4)CC3)nc3cnc4ccc(C#N)cc4c32)CCO1 [Compound 27, 2-(1-cyclopropanecarbonylpiperidin-4-yl)-1-[(2R,4R)-2-methyloxan-4-yl]-1H-imidazo[4,5-c]quinoline-8-carbonitrile] | 1.49 | 115
12 | C[C@@H]1C[C@H](n2c(CC(=O)N(C)C)nc3cnc4ccc(C#N)cc4c32)CCO1 [Compound 9, 2-{8-cyano-1-[(2R,4R)-2-methyloxan-4-yl]-1H-imidazo[4,5-c]quinolin-2-yl}-N,N-dimethylacetamide] | 6.28 | 605
13 | C[C@@H]1C[C@H](n2c(C3CC(=O)N(c4ccnn4C)C3)nc3cnc4ccc(C#N)cc4c32)CCO1 (stereo partly drawn) [Compound 103, 2-[1-(1-methyl-1H-pyrazol-5-yl)-5-oxopyrrolidin-3-yl]-1-[(2R,4R)-2-methyloxan-4-yl]-1H-imidazo[4,5-c]quinoline-8-carbonitrile] | 1.98 | 400
14 | Cc1nn(C)cc1NC(=O)Cc1nc2cnc3ccc(C#N)cc3c2n1[C@@H]1CCO[C@H](C)C1 [Compound 231, N-(1-methyl-3-methyl-4-pyrazolyl){3-[(2R,4R)-2-methyltetrahydro-2H-pyran-4-yl]-12-cyano-3,5,8-triazatricyclo[7.4.0.0^2,6]trideca-1,4,6,8,10,12-hexaen-4-yl}acetamide] | 0.621 | 13.6
15 | C[C@@H]1C[C@H](n2c(CC(=O)N[C@@H]3CCOC3)nc3cnc4ccc(Cl)cc4c32)CCO1 [Compound 145, 2-{8-chloro-1-[(2R,4R)-2-methyloxan-4-yl]-1H-imidazo[4,5-c]quinolin-2-yl}-N-[(3R)-oxolan-3-yl]acetamide] | 0.616 | 13.5
16 | C[C@@H]1C[C@H](n2c(CN3CCCS3(=O)=O)nc3cnc4ccc(C#N)cc4c32)CCO1 [Compound 75, 2-[(1,1-dioxo-126,2-thiazolidin-2-yl)methyl]-1-[(2R,4R)-2-methyloxan-4-yl]-1H-imidazo[4,5-c]quinoline-8-carbonitrile] | 11.1 | 590
17 | C[C@@H]1C[C@H](n2c(CC(=O)NC3CCOCC3)nc3cnc4ccc(Cl)cc4c32)CCO1 [Compound 192, 2-{8-chloro-1-[(2R,4R)-2-methyloxan-4-yl]-1H-imidazo[4,5-c]quinolin-2-yl}-N-(oxan-4-yl)acetamide] | 0.385 | 13.3
18 | C[C@@H]1C[C@H](n2c(C3CC(=O)N(C4CCOCC4)C3)nc3cnc4ccc(C#N)cc4c32)CCO1 (mixture of isomers) [Compound 64, 1-[(2R,4R)-2-methyloxan-4-yl]-2-[1-(oxan-4-yl)-5-oxopyrrolidin-3-yl]-1H-imidazo[4,5-c]quinoline-8-carbonitrile] | 3.71 | 313
19 | CO[C@H]1C[C@@H](NC(=O)Cc2nc3cnc4ccc(C#N)cc4c3n2[C@@H]2CCO[C@H](C)C2)C1 [Compound 301, N-[(1s,3s)-3-methoxycyclobutyl]{3-[(2R,4R)-2-methyltetrahydro-2H-pyran-4-yl]-12-cyano-3,5,8-triazatricyclo[7.4.0.0^2,6]trideca-1,4,6,8,10,12-hexaen-4-yl}acetamide] | 0.701 | 41.3
20 | C[C@@H]1C[C@H](n2c(CC(=O)NC3(CF)CC3)nc3cnc4ccc(C#N)cc4c32)CCO1 [Compound 294, N-1-(fluoromethyl)cyclopropyl{3-[(2R,4R)-2-methyltetrahydro-2H-pyran-4-yl]-12-cyano-3,5,8-triazatricyclo[7.4.0.0^2,6]trideca-1,4,6,8,10,12-hexaen-4-yl}acetamide] | 1.48 | 132

— patent US20250270209A1 (INTERLINE THERAPEUTICS, INC., priority 2022, published 2025)
